Test: mn = molality of the nth substance listed, in mol/kg
Details: 101.3 kPa, Liquid; for viscosity: Capillary tube (Ostwald / Ubbelohde) method; for mass density: Vibrating tube method

Cn1c(=O)c2[nH]cnc2n(C)c1=O [3,7-dihydro-1,3-dimethyl-1H-purine-2,6-dione] + O
Details	mass density, 288.15 K [kg/m3]	mass density, 298.15 K [kg/m3]	mass density, 308.15 K [kg/m3]	mass density, 318.15 K [kg/m3]	viscosity, 288.15 K [mPa·s]	viscosity, 298.15 K [mPa·s]	viscosity, 308.15 K [mPa·s]	viscosity, 318.15 K [mPa·s]
m1 = 0.00208	999.241	997.153	994.165	990.343	–	–	–	–
m1 = 0.00213	–	–	–	–	1.139	0.891	0.719	0.597
m1 = 0.00284	–	–	–	–	1.139	0.892	0.72	0.597
m1 = 0.00285	999.283	997.192	994.204	990.379	–	–	–	–
m1 = 0.00378	999.333	997.239	994.25	990.423	–	–	–	–
m1 = 0.00394	–	–	–	–	1.14	0.892	0.72	0.598
m1 = 0.00479	999.388	997.291	994.3	990.472	–	–	–	–
m1 = 0.00519	–	–	–	–	1.14	0.892	0.721	0.598
m1 = 0.00578	999.443	997.341	994.35	990.519	–	–	–	–
m1 = 0.00617	–	–	–	–	1.141	0.893	0.722	0.599
m1 = 0.00689	–	–	–	–	1.141	0.893	0.722	0.599
m1 = 0.00699	999.509	997.404	994.41	990.578	–	–	–	–
m1 = 0.00776	999.551	997.443	994.448	990.614	–	–	–	–
m1 = 0.00819	–	–	–	–	1.142	0.894	0.723	0.599
m1 = 0.00921	–	–	–	–	1.142	0.895	0.723	0.6
m1 = 0.00934	999.638	997.526	994.528	990.691	–	–	–	–
m1 = 0.00986	999.667	997.554	994.554	990.716	–	–	–	–

Cn1cnc2c1c(=O)[nH]c(=O)n2C [1H-purine-2,6-dione, 3,7-dihydro-3,7-dimethyl-] + O
Details	mass density, 288.15 K [kg/m3]	mass density, 298.15 K [kg/m3]	mass density, 308.15 K [kg/m3]	mass density, 318.15 K [kg/m3]	viscosity, 288.15 K [mPa·s]	viscosity, 298.15 K [mPa·s]	viscosity, 308.15 K [mPa·s]	viscosity, 318.15 K [mPa·s]
m1 = 0.00051	999.157	997.073	994.088	990.268	1.138	0.891	0.72	0.597
m1 = 0.0007	999.167	997.083	994.097	990.277	1.139	0.891	0.72	0.597
m1 = 0.0009	999.177	997.093	994.107	990.287	1.139	0.891	0.72	0.597
m1 = 0.00098	999.182	997.097	994.111	990.291	1.139	0.891	0.72	0.597
m1 = 0.00123	999.195	997.11	994.123	990.303	1.139	0.891	0.72	0.597
m1 = 0.00147	–	–	–	–	1.139	0.891	0.72	0.597
m1 = 0.00148	999.209	997.123	994.135	990.314	–	–	–	–
m1 = 0.00182	–	–	–	–	1.139	0.891	0.72	0.597
m1 = 0.00183	999.228	997.141	994.152	990.331	–	–	–	–
m1 = 0.00212	–	–	–	–	1.139	0.891	0.72	0.597
m1 = 0.00213	999.244	997.156	994.167	990.346	–	–	–	–

Cn1c(=O)c2c(ncn2C)n(C)c1=O [caffeine] + O
Details	mass density, 288.15 K [kg/m3]	mass density, 298.15 K [kg/m3]	mass density, 308.15 K [kg/m3]	mass density, 318.15 K [kg/m3]	viscosity, 288.15 K [mPa·s]	viscosity, 298.15 K [mPa·s]	viscosity, 308.15 K [mPa·s]	viscosity, 318.15 K [mPa·s]
m1 = 0.00508	–	–	–	–	1.14	0.895	0.723	0.599
m1 = 0.0051	999.404	997.304	994.303	990.464	–	–	–	–
m1 = 0.00693	–	–	–	–	1.142	0.896	0.724	0.6
m1 = 0.00695	999.505	997.399	994.39	990.545	–	–	–	–
m1 = 0.009	–	–	–	–	1.144	0.896	0.724	0.601
m1 = 0.00902	999.619	997.504	994.488	990.637	–	–	–	–
m1 = 0.01986	–	–	–	–	1.147	0.9	0.728	0.606
m1 = 0.01993	1000.22	998.06	995.013	991.121	–	–	–	–
m1 = 0.02978	–	–	–	–	1.152	0.905	0.732	0.609
m1 = 0.02992	1000.77	998.576	995.497	991.571	–	–	–	–
m1 = 0.03531	1001.07	998.853	995.759	991.812	–	–	–	–
m1 = 0.03533	–	–	–	–	1.154	0.907	0.735	0.611
m1 = 0.03983	–	–	–	–	1.156	0.91	0.737	0.613
m1 = 0.04008	1001.34	999.101	996.001	992.025	–	–	–	–
m1 = 0.04953	–	–	–	–	1.162	0.914	0.741	0.617
m1 = 0.04992	1001.89	999.619	996.484	992.483	–	–	–	–

Source: the NIST ThermoML archive (doi:10.1021/acs.jced.7b00520)
